Laboratory results published in US20050096350A1, “Halo substituted benzo[b]thiophenes as therapeutic agents” (priority 2003, published 2005).

Target: T1, PI3Kγ (purified recombinant p101/p110γ protein) (Homo sapiens, UniProt P48736)
T1 construct: HA; made in house; host or cells: Spodoptera frugiperda Sf9 cells (baculovirus coinfection)
Test: PI3Kγ in vitro kinase assay
Format: biochemical
Settings: 20 μM ATP, 25 μM PIP2, G protein β1/γ2 subunits
Procedure: Spodtera frugiperda cells, grown in ESF921 media, were coinfected with baculovirus expressing a glu-tagged p101 and baculovirus expressing an HA-tagged […], at a 3:1 ratio of p101 baculovirus to p110γ baculovirus. Sf9 cells were grown to 1×10^7 total cells/mL in 10 L bioreactors and harvested 48-72 hours post infection. Samples of infected cells were then tested for expression of p101/p110γ PI3 kinase by immunoprecipitation and Western Blot analysis methods (see below).
To purify PI3Kγ, 4 volumes of room temperature hypotonic lysis buffer (1 mM MgCl2, 1 mM DTT, 5 mM EGTA, 1 mM Pefabloc, 0.5 μM aprotinin, 5 μM leupeptin, 2 μM pepstatin, 5 μM E64, pH 8) per gram of cell paste, was poured onto frozen cell pellets with stirring, then lysed in a nitrogen “bomb” at 400 psi (599HC T316, Parr Instrument Co, Moline, Ill.). NaCl was added to 150 mM, and sodium cholate was added to 1% and mixed for another 45 minutes. The lysates were clarified by centrifugation for 25 minutes at 14,000 rpm. The lysates were then loaded over anti-glu-linked Protein-G Sepaharose beads (Covance Research Products, Richmond, Calif.) using 20 mL resin/50 g cell paste. The column was washed with 15 volumes of wash buffer (1 mM DTT, 0.2 mM EGTA, 1 mM Pefabloc, 0.5 μM aprotinin, 5 μM leupeptin, 2 μM pepstatin, 5 μM E64, 150 mM NaCl, 1% sodium cholate, pH 8). PI3Kγ was eluted with 6 column volumes of wash buffer that contain 100 μg/mL of a peptide that competes for binding of the glu tag. The column fractions with the eluted protein (determined by taking OD280 readings) were collected and dialyzed in 0.2 mM EGTA, 1 mM DTT, 1 mM Pefabloc, 5 μM leupeptin, 0.5% sodium cholate, 150 mM NaCl, and 50% glycerol, pH 8. The fractions were stored at −80° C. until further use.
Spodtera frugiperda cells were coinfected with baculovirus expressing a glu-tagged G protein β1 and baculovirus expressing a G protein β2, at a 1:1 ratio of glu-tagged G protein β1 baculovirus to G protein β2 baculovirus. Sf9 cells are grown in 10 L bioreactors and harvested 48-72 hours post infection. Samples of infected cells were tested for G protein β1/β2 expression by Western Blot analysis, as described below. Cell lysates were homogenized and loaded onto a column of glu-tagged beads as in Biological Example 1 and competed off the column with a glu peptide and processed as described in Biological Example 1.
The inhibitory properties of the compounds in Table 1 were assayed in an in vitro PI3K assay. In a 96-well polypropylene plate, each well was spotted with 2 μL of 50 times the desired final concentration of compound in DMSO. Purified recombinant p101/p110γ protein (0.03 μg; ˜2.7 nM) and G protein β1/γ2 subunits (0.09 μg; ˜57.7 nM) for each reaction was combined in the assay buffer (30 mM HEPES, 100 mM NaCl, 1 mM EGTA, and 1 mM DTT). ATP and [γ-^32P-ATP] (0.09 μCi) were added to this mixture so that the final ATP concentration in the reaction was 20 μM. Lipid micelles were formed by sonicating phosphatidylinositol-4,5-diphosphate (PIP2), phosphatidylethanolamine (PE), and Na-cholate in the assay buffer for 10 minutes, adding MgCl2 and incubating on ice for 20 minutes, for final concentrations of 25 μM PIP2, 300 μM PE, 0.02% Na-cholate, and 10 mM MgCl2 in the reaction. The reactions were started by adding equal volumes lipid and enzyme mixture in a total volume of 50 μL, allowed to run for 20 minutes at room temperature, and stopped with 100 μL 75 mM H3PO4. The lipid product was transferred to a glass fiber filter plate and washed with 75 mM H3PO4 several times. The presence of radioactive lipid product (PIP3) was measured by adding Wallac Optiphase mix to each well and counting in a Wallac 1450 Trilux plate reader (PerkinElmer Life Sciences Inc., Boston, Mass. 02118). The IC50 for each compound tested is reported in μM in the Tables above.

T1 sequence (P48736 whole entry, species assumed): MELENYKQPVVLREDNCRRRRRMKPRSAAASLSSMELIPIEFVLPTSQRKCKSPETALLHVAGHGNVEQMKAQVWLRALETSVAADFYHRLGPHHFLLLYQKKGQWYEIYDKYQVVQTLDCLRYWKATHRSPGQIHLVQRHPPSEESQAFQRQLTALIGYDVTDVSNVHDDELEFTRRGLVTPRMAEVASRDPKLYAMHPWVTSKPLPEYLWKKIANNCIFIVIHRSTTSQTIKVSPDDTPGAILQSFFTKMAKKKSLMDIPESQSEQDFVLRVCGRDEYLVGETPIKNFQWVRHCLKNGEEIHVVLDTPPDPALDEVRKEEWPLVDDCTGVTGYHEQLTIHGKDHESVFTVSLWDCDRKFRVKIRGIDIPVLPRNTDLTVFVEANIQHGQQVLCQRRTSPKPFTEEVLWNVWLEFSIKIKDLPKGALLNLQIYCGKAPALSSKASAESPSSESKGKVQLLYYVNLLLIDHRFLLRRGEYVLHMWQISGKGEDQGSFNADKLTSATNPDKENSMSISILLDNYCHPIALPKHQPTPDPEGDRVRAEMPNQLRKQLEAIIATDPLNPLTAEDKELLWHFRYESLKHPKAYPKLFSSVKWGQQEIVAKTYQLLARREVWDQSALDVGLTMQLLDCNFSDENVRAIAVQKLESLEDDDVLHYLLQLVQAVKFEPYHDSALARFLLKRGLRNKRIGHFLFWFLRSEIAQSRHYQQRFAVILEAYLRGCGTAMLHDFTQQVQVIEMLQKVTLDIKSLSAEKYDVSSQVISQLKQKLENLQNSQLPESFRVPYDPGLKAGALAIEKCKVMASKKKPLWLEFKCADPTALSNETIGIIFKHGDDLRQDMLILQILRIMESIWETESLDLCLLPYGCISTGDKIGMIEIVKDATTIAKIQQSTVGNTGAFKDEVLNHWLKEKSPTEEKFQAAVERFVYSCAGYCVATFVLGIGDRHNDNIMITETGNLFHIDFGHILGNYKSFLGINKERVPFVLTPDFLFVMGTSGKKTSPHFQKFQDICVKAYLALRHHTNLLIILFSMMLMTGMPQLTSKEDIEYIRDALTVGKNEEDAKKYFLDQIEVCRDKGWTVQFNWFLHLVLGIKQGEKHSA
T1 sequence (Q8WYR1 whole entry partner, species assumed): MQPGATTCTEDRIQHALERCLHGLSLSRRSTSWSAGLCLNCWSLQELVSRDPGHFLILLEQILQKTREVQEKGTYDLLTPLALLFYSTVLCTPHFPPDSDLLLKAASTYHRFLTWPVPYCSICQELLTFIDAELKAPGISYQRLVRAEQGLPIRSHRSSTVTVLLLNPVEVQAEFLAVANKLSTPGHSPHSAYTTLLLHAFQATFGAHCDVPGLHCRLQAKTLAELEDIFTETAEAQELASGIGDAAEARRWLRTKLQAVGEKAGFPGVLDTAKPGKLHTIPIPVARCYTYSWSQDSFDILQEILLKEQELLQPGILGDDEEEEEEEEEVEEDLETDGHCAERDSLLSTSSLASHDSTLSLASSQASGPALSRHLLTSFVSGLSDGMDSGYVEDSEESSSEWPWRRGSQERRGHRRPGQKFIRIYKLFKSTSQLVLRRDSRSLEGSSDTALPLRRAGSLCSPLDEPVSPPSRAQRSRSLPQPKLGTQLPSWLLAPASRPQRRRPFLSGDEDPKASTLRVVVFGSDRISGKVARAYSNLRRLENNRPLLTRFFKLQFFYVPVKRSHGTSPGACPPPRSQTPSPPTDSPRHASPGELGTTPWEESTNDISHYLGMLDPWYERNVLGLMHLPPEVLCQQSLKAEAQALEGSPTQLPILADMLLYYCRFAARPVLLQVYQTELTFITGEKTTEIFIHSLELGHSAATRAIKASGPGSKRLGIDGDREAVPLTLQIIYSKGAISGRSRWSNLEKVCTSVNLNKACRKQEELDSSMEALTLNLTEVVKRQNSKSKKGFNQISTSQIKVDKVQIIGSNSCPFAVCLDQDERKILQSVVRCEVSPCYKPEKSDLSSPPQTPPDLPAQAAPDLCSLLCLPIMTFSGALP

Molecule `COC(=O)c1ccc(Sc2c(C(=O)Nc3nnn[nH]3)sc3ccc(OC)c(F)c23)cc1` [Example 26, 4-[4-Fluoro-5-methoxy-2-(1H-tetrazol-5-ylcarbamoyl)-benzo[b]thiophen-3-ylsulfanyl]-benzoic acid methyl ester] has an IC50 of 20 µM.
In the case of `COC(=O)Cc1ccc(Sc2c(C(=O)Nc3nnn[nH]3)sc3ccc(OC)c(F)c23)cc1` [Example 27, {4-[4-Fluoro-5-methoxy-2-(1H-tetrazol-5-ylcarbamoyl)-benzo[b]thiophen-3-ylsulfanyl]-phenyl}-acetic acid methyl ester], the IC50 is reported as 14.2 µM.
With `COC(=O)CCc1ccc(Sc2c(C(=O)Nc3nnn[nH]3)sc3ccc(OC)c(F)c23)cc1` [Example 28, 3-{4-[4-Fluoro-5-methoxy-2-(1H-tetrazol-5-ylcarbamoyl)-benzo[b]thiophen-3-ylsulfanyl]-phenyl}-propionic acid methyl ester] the IC50 was 14.9 µM.
Work on `COc1ccc2sc(C(=O)Nc3nnn[nH]3)c(Sc3cccc(Cl)c3)c2c1F` [Example 31, 3-(3-Chloro-phenylsulfanyl)-4-fluoro-5-methoxy-benzo[b]thiophene-2-carboxylic acid (1H-tetrazol-5-yl)-amide] yielded an IC50 of 5.87 µM.
`COc1cccc(Sc2c(C(=O)Nc3nnn[nH]3)sc3ccc(OC)c(F)c23)c1` [Example 32, 4-Fluoro-5-methoxy-3-(3-methoxy-phenylsulfanyl)-benzo[b]thiophene-2-carboxylic acid (1H-tetrazol-5-yl)-amide] showed an IC50 of 5.94 µM.
In the case of `COc1ccc(Sc2c(C(=O)Nc3nnn[nH]3)sc3ccc(OC)c(F)c23)cc1` [Example 33, 4-Fluoro-5-methoxy-3-(4-methoxy-phenylsulfanyl)-benzo[b]thiophene-2-carboxylic acid (1H-tetrazol-5-yl)-amide], the IC50 is reported as 19.4 µM.
`COc1ccc2sc(C(=O)Nc3nnn[nH]3)c(Sc3ccc(C(=O)O)cc3)c2c1F` [Example 34, 4-[4-Fluoro-5-methoxy-2-(1H-tetrazol-5-ylcarbamoyl)-benzo[b]thiophen-3-ylsulfanyl]-benzoic acid] showed an IC50 of 5.95 µM.
With `COc1ccc2sc(C(=O)Nc3nnn[nH]3)c(Sc3ccc(CCC(=O)O)cc3)c2c1F` [Example 36, 3-{4-[4-Fluoro-5-methoxy-2-(1H-tetrazol-5-ylcarbamoyl)-benzo[b]thiophen-3-ylsulfanyl]-phenyl}-propionic acid] the IC50 was 7.18 µM.
`COc1ccc2sc(C(=O)Nc3nnn[nH]3)c(SC3CCCC3)c2c1F` [Example 38, 3-Cyclopentylsulfanyl-4-fluoro-5-methoxy-benzo[b]thiophene-2-carboxylic acid (1H-tetrazol-5-yl)-amide] showed an IC50 of 0.19 µM.
In the case of `COc1ccc2c(SC3CCCC3)c(C(=O)Nc3nnn[nH]3)sc2c1F` [Example 39, 3-Cyclopentylsulfanyl-7-fluoro-6-methoxy-benzo[b]thiophene-2-carboxylic acid (1H-tetrazol-5-yl)-amide], the IC50 (table b284) is reported as 0.016 µM.
With `COc1cc2c(SC3CCCC3)c(C(=O)Nc3nnn[nH]3)sc2cc1F` [Example 42, 3-Cyclopentylsulfanyl-6-fluoro-5-methoxy-benzo[b]thiophene-2-carboxylic acid (1H-tetrazol-5-yl)-amide] the IC50 (table b291) was 0.011 µM.
For `COc1cc2c(Oc3ccc(C4CCCCC4)cc3)c(C(=O)Nc3nn[nH]n3)sc2cc1Br` [Example 43, 6-Bromo-3-(4-Cyclohexyl-phenoxy)-5-methoxy-benzo[b]thiophene-2-carboxylic acid (2H-tetrazol-5-yl)-amide], the IC50 (table b298) was 0.38 µM.
For `COc1cc2c(Oc3ccc(C4CCCCC4)cc3)c(C(=O)Nc3nn[nH]n3)sc2cc1Cl` [Example 44, 6-Chloro-3-(4-Cyclohexyl-phenoxy)-5-methoxy-benzo[b]thiophene-2-carboxylic acid (2H-tetrazol-5-yl)-amide], the IC50 (table b298) was 0.11 µM.
